PubChem BioAssay (NCI)
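Values below derive from 48-hour exposures of cells grown in 96-well plates, with endpoints linearly interpolated between the two concentrations bracketing the appropriate inhibition level. TGI denotes the concentration required for complete inhibition of growth.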

What was measured:
Test in all cases: growth of human tumour cells (NCI), 48 h
A549 NSCLC = system: A549 NSCLC
ACHN renal = system: ACHN renal
BT-549 breast = system: BT-549 breast
CAKI-1 renal = system: CAKI-1 renal
CCRF-CEM leukemia = system: CCRF-CEM leukemia
COLO 205 colon = system: COLO 205 colon
DU-145 prostate = system: DU-145 prostate
EKVX NSCLC = system: EKVX NSCLC
HCC-2998 colon = system: HCC-2998 colon
HCT-116 colon = system: HCT-116 colon
HCT-15 colon = system: HCT-15 colon
HL-60(TB) leukemia = system: HL-60(TB) leukemia
HOP-62 NSCLC = system: HOP-62 NSCLC
K-562 leukemia = system: K-562 leukemia
KM12 colon = system: KM12 colon
LOX IMVI melanoma = system: LOX IMVI melanoma
M14 melanoma = system: M14 melanoma
MALME-3M melanoma = system: MALME-3M melanoma
MCF7 breast = system: MCF7 breast
MDA-MB-231 breast = system: MDA-MB-231 breast
MDA-MB-435 = system: MDA-MB-435
MDA-N = system: MDA-N
MOLT-4 leukemia = system: MOLT-4 leukemia
NCI-H23 lung = system: NCI-H23 lung
NCI-H460 lung = system: NCI-H460 lung
NCI/ADR-RES ovarian = system: NCI/ADR-RES ovarian
OVCAR-3 ovarian = system: OVCAR-3 ovarian
OVCAR-4 ovarian = system: OVCAR-4 ovarian
OVCAR-5 ovarian = system: OVCAR-5 ovarian
OVCAR-8 ovarian = system: OVCAR-8 ovarian
PC-3 prostate = system: PC-3 prostate
RPMI-8226 leukemia = system: RPMI-8226 leukemia
SF-295 CNS = system: SF-295 CNS
SK-MEL-2 melanoma = system: SK-MEL-2 melanoma
SK-MEL-28 melanoma = system: SK-MEL-28 melanoma
SK-MEL-5 melanoma = system: SK-MEL-5 melanoma
SN12C renal = system: SN12C renal
SNB-19 CNS = system: SNB-19 CNS
SR leukemia = system: SR leukemia
TK-10 renal = system: TK-10 renal
U251 CNS = system: U251 CNS
UACC-257 melanoma = system: UACC-257 melanoma
UO-31 renal = system: UO-31 renal
786-0 renal = system: 786-0 renal
A498 renal = system: A498 renal
HOP-92 NSCLC = system: HOP-92 NSCLC
HT29 colon = system: HT29 colon
IGROV1 ovarian = system: IGROV1 ovarian
NCI-H226 lung = system: NCI-H226 lung
NCI-H522 lung = system: NCI-H522 lung
SF-268 CNS = system: SF-268 CNS
SF-539 CNS = system: SF-539 CNS
SK-OV-3 ovarian = system: SK-OV-3 ovarian
SNB-75 CNS = system: SNB-75 CNS
SW-620 colon = system: SW-620 colon
UACC-62 melanoma = system: UACC-62 melanoma
RXF 393 renal = system: RXF 393 renal

Measured: TGI

CC(C(=O)O)c1ccc(-n2nnc3c(=O)[nH][nH]c(=O)c32)cc1 (centres undefined)
not listed: 786-0 renal | A498 renal | HOP-92 NSCLC | HT29 colon | IGROV1 ovarian | NCI-H226 lung | NCI-H522 lung | SF-268 CNS | SF-539 CNS | SK-OV-3 ovarian | SNB-75 CNS | SW-620 colon | UACC-62 melanoma | RXF 393 renal
> 100 µM: all other assays above

CC(=O)NC(CC(C)C)C(=O)NC(CC(C)C)C(=O)NC(C=O)CCCN=C(N)N (centres undefined)
not listed: HL-60(TB) leukemia | RXF 393 renal
> 100 µM: all other assays above

O=CC1=C(C(=O)OC(c2ccccc2)c2ccccc2)N2C(=O)[C@@H](NC(=O)Cc3cccs3)[C@H]2SC1
not listed: BT-549 breast | HOP-62 NSCLC | SK-MEL-28 melanoma | SNB-19 CNS | HT29 colon | SF-268 CNS
> 100 µM: all other assays above
